Test results: US6281354A, “Analogs of duocarmycin and cc-1065” (The Scripps Research Institute, priority 1999, dated 2001)
Where two headings read alike, the source gives them in different places.

Legend:
[1] = In vitro cytotoxic activity; details: for cytotoxic potency of the two enantiomers compared: natural versus unnatural enantiomer; for cytotoxic activity of seco precursor compared with cyclopropane agent: versus 17-20, 23, 30 and 31, respectively
[2] = Chemical/aqueous solvolysis reactivity followed by UV; format: physicochemical; details: for solvolysis rate constant κ, pH 3: pH 3, 50% CH3 OH-buffer
Description: The solvolysis reactivities of N--BOC-CNA (78) and CNA (79) were followed spectrophotometrically by UV at both pH 3 (50% CH3 OH-buffer, buffer=4:1:20 v/v/v 0.1 M citric acid, 0.2 M Na2 HPO4, H2 O) and pH 7 (50% CH3 OH--H2 O). […] Particularly informative are comparisons of the benzo series of agents that differ only in the C-ring size (i.e., 76-79). Solvolysis reactivity smoothly increases through the series CBI<CBQ<CNA with both the N--BOC derivatives and the free NH derivatives.
Aqueous Solvolysis of N--BOC-CNA (78) and CNA (79). Samples of 78 (150 μg) and 79 (150 [g) were dissolved in CH3 OH (1.5 mL) and the resulting solutions were mixed with aqueous buffer (pH 3, 1.5 mL, 4:1:20 (v:v:v) 0.1 M citric acid, 0.2 M Na2 HPO4, and deionized H2 O respectively). Similarly, a solution of 78 (150 μg) in CH3 OH (1.5 mL) was mixed with deionized H2 O (pH 7, 1.5 mL). The UV spectra of the solutions were measured immediately after mixing with the appropriate aqueous solution. The blank and the solvolysis reaction solutions were stoppered, protected from light, and allowed to stand at 25° C. The total reaction times reflect those required to observe no further change in absorbance. For the solvolysis of 78 at pH 3, the UV spectrum was taken every 30 s for 10 min and then every 3 min for the next 40 min. The decrease of the absorbance at 319 nm was monitored. […] For the solvolysis of 78 at pH 7, the UV spectrum was monitored every 5 min for 19 h. […] For the solvolysis of 79 at pH 3, the UV spectrum was monitored every 2 min for the first 110 min and then every 10 min for the next 4 h. The decrease in the absorbance at 345 nm was recorded.

[3] = tested on: duplex DNA (w794, w836, c988, c820, c1346); format: biochemical, SV40; details: for sequence preference at the alkylation site: consensus alkylation sequence; for concentration at which DNA is alkylated / more efficient DNA alkylation than (+)-N--BOC-DSA: natural enantiomers
[4] = 50% ch3oh-buffer, pH 3, pH 3, 50% CH3 OH-buffer, 25° C., read-out: solvolysis t1/2, pH 3 (h) (converted)
[5] = 50% ch3oh-buffer, pH 3, pH 3, 50% CH3 OH-buffer, 25° C., read-out: solvolysis t1/2, pH 3 (min)

With `CC(C)(C)OC(=O)N1CCCC2CC23C1=CC(=O)c1ccccc13` (single isomer, unassigned; (+)) [(+)-78] the “cytotoxic potency of the two enantiomers compared” value [1] was “more potent activity”.
For `COC(=O)c1cc2c([nH]1)C(=O)C=C1N(C(=O)c3cc4c5c(ccc4[nH]3)N(C(=O)c3cc4c6c(ccc4[nH]3)N(C(N)=O)CC6)CC5)CC3CC123` (stereo not shown) [compound 61], the “cytotoxic potency of the two enantiomers compared” value [1] was “nearly equipotent”.
For `O=C1C=C2NCCCC3CC23c2ccccc21` (stereo not shown) [compound 79, 1,2,3,4,11,11a-Hexahydrocyclopropa[c]naphtho[2,1-b]azepin-6-one], the “more reactive than the corresponding CBI derivative (solvolysis)” value [2] was 1500 ×, the “reactivity difference, CNA versus CBQ” value [2] was “over a hundred-fold difference in reactivity” and the “solvolysis reactivity/stability in words or rank order” value (“solvolysis reactivity/stability” below) [2] was “sufficiently reactive to undergo rapid solvolysis even at pH 7”. For the same molecule, the half-life [2, 4] was 0.62 h, the half-life [2, 5] was 0.617 h and the “solvolysis reactivity/stability” value ([2]; listed as CNA) was “CBI<CBQ<CNA”. The “solvolysis reactivity/stability” value ([2]; listed as CNA (79)) was “considerably more stable than N--BOC-CNA (78)” and the “solvolysis rate constant κ, pH 3” value ([2]; 25° C.) was 3.10×10^-4 s^-1.
With `COC(=O)c1cc2c([nH]1)C(=O)C=C1N(C(=O)OC(C)(C)C)CC3CC123` (stereo not shown) [N--BOC-DSA] the “AT-rich adenine N3 alkylation selectivity (size of site)” value [3] was 2 base-pair, the “reaction time required for substantial or complete DNA alkylation” value ([3]; 25-37° C.) was 2 to 7 days and the “sequence preference at the alkylation site” value (“sequence preference” for short) [3] was 5'-AA>5'-TA.
With `O=C1C=C2NCCC3CC23c2ccccc21` (stereo not shown) [CBQ, reference compound] the “solvolysis reactivity difference, CBI versus CBQ” value [2] was 10 -fold and the “solvolysis reactivity/stability” value [2] was “CBI<CBQ<CNA”.
With `CC(C)(C)OC(=O)N1CCCC2CC23C1=CC(=O)c1ccccc13` (stereo not shown) [compound 78] the “more reactive than N--BOC-DSA (solvolysis)” value [2] was 10^3 -10^4 ×, the “more reactive than the corresponding CBI derivative (solvolysis)” value [2] was 4750 × and the “solvolysis reactivity/stability” value [2] was “sufficiently reactive to undergo rapid solvolysis even at pH 7”. For the same molecule, the half-life [2, 4] was 0.028 h, the half-life [2, 5] was 0.0283 h and the half-life ([2]; 50% ch3oh-h2o, pH 7, pH 7, 50% CH3 OH--H2 O, 25° C., read-out: solvolysis t1/2, pH 7 (converted)) was 2.1 h. For the same molecule, the half-life ([2]; 50% methanol-water, pH 7, pH 7, no added acid catalysis, read-out: solvolysis t1/2, pH 7 (converted)) was 2.1 h, the “solvolysis reactivity/stability” value ([2]; listed as N--BOC-CNA) was “between that of N--BOC-CBQ and the exceptionally reactive N--BOC-CI” and the “solvolysis rate constant κ, pH 3” value ([2]; 25° C.) was 6.90×10^-3 s^-1. For the same molecule, the “solvolysis rate constant κ, pH 7” value ([2]; pH 7, 50% CH3 OH--H2 O, 25° C.) was 9.16×10^-5 s^-1 and the “solvolysis t1/2, pH 7 (h)” value ([2]; pH 7, no added acid catalysis) was 2.1 h.
With `COC(=O)c1cc2c3c(ccc2[nH]1)N(C(=O)c1cc2c([nH]1)C(=O)C=C1N(C(=O)c4cc5cc(OC)c(OC)c(OC)c5[nH]4)CC4CC124)CC3` (stereo not shown) [compound 31] the “cytotoxic potency compared with typical agents” value [1] was “essentially equipotent with the typical agents”.
In the case of `COC(=O)c1cc2cc(NC(=O)c3cc4c([nH]3)C(=O)C=C3N(C(=O)OC(C)(C)C)CC5CC345)ccc2[nH]1` (stereo not shown) [compound 17, N-(Methyl 1H-Indol-5-yl-2-carboxylate)-2-((tert-butyloxy)carbonyl)-1,2,8,8a-tetrahydrocyclopropa[c]pyrrolo[3,2-e]indol-4-one-7-carboxamide], the “cytotoxic potency compared with simple derivatives N--BOC-DSA (4) and N--Ac-DSA” value ([1]; natural enantiomers) is reported as “essentially indistinguishable” and the “AT-rich adenine N3 alkylation selectivity (size of site)” value [3] is reported as 3.5 base-pair.
For `COC(=O)c1cc2c([nH]1)C(=O)C=C1N(C(=O)c3cc4cc(OC)c(OC)c(OC)c4[nH]3)C[C@@H]3C[C@@]123` [ent-(-)-duocarmycin SA, reference compound], the “AT-rich adenine N3 alkylation selectivity (size of site)” value [3] was 3.5 base-pair.
With `COC(=O)c1cc2c3c(ccc2[nH]1)N(C(=O)c1cc2c4c(cc(O)c2[nH]1)N(C(=O)c1cc2cc(OC)c(OC)c(OC)c2[nH]1)CC4CCl)CC3` (stereo not shown) [compound 29, 7-[(Methyl 1,2-Dihydro-3H-pyrrolo[3,2e]indole-3-yl)carbonyl-7-carboxylate]-3-[(5,6,7-trimethoxyindol-2-yl)carbonyl]-1-(chloromethyl)-5-hydroxy-1,2-dihydro-3H-pyrrolo[3,2-e]indole] the “cytotoxic activity of seco precursor compared with cyclopropane agent” value [1] was “not distinguishable”.
In the case of `COC(=O)c1cc2cc(NC(=O)c3cc4cc(NC(=O)c5cc6c7c(cc(O)c6[nH]5)N(C(C)=O)CC7CCl)ccc4[nH]3)ccc2[nH]1` (stereo not shown) [compound 22, N-{2-[N-(2-Methoxycarbonyl-1H-indol-5-yl)]carbamoyl-1H-indol-5-yl}-3-acetyl-1-(chloromethyl)-5-hydroxy-1,2-dihydro-3H-pyrrolo[3,2-e]indole-7-carboxamide], the “cytotoxic activity of seco precursor compared with cyclopropane agent” value [1] is reported as “not distinguishable”.
With `COC(=O)c1cc2c([nH]1)C(=O)C=C1N(C(=O)OC(C)(C)C)C[C@H]3C[C@]123` [(+)-N--BOC-DSA] the “AT-rich adenine N3 alkylation selectivity (size of site)” value [3] was 2 base-pair.
With `O=C1C=C2NCC3CC23c2ccccc21` (stereo not shown) [CBI, reference compound] the “solvolysis reactivity difference, CBI versus CBQ” value [2] was 10 -fold and the “solvolysis reactivity/stability” value [2] was “CBI<CBQ<CNA”.
In the case of `COC(=O)N1CCCC2CC23C1=CC(=O)c1ccccc13` (stereo not shown) [compound 97, N-(Methoxycarbonyl)-1,2,3,4,11,11a-hexahydrocyclopropa[c]naphtho[2,1-b]azepin-6-one], the “more reactive than N--BOC-DSA (solvolysis)” value [2] is reported as 10^3 -10^4 × and the half-life ([2]; 50% methanol-water, pH 7, no added acid catalysis, read-out: solvolysis t1/2, pH 7 (converted)) is reported as 2.1 h.
For `COC(=O)c1cc2cc(NC(=O)c3cc4cc(NC(=O)c5cc6c([nH]5)C(=O)C=C5NCC7CC567)ccc4[nH]3)ccc2[nH]1` (stereo not shown) [compound 24], the “cytotoxic potency, effect of terminal N^2 substituent (18, 23, 24 compared)” value ([1]; natural and unnatural enantiomers) was “noticeably less potent”, the “DNA alkylation efficiency relative to 18” value [3] was “about an order of magnitude less efficient” and the “comparison of DNA alkylation selectivity” value [3] was “no differences in their DNA alkylation selectivity”. For the same molecule, the “less efficient at alkylating DNA than DSA-indole2” value [3] was “ca. 100 ×”, the “slower DNA alkylation than DSA-indole2” value [3] was “ca. 1000 ×” and the “unnatural enantiomer less effective at DNA alkylation than natural enantiomer” value (from here on “unnatural enantiomer less effective”) [3] was “approximately 10 ×”.
With `COC(=O)c1cc2c([nH]1)C(=O)C=C1N(C(C)=O)CC3CC123` (stereo not shown) [compound 40, Methyl 2-Acetyl-1,2,8,8a-tetrahydrocyclopropa[c]pyrrolo[3,2-e]indol-4-one-6-carboxylate] the “sequence preference” value [3] was 5'-AA>5'-TA, the “concentration at which DNA is alkylated” value [3] was 10^-3 M and the “more efficient DNA alkylation than (+)-N--BOC-DSA” value [3] was “approximately 10 ×”. For the same molecule, the “unnatural enantiomer less effective” value [3] was “approximately 10 ×”.
For `COC(=O)c1cc2c([nH]1)C(=O)C=C1N(C(=O)OC(C)(C)C)C[C@@H]3C[C@@]123` [ent-(-)-N--BOC-DSA], the “AT-rich adenine N3 alkylation selectivity (size of site)” value [3] was 2 base-pair.
For `COC(=O)c1cc2c3c(ccc2[nH]1)N(C(=O)c1cc2c4c(cc(O)c2[nH]1)N(C(=O)c1cc2c5c(ccc2[nH]1)N(C(N)=O)CC5)CC4CCl)CC3` (stereo not shown) [compound 28, 7-[(Methyl 1,2-Dihydro-(3H-pyrrolo[3,2-e]indole-3-yl)carbonyl-7-carboxy-late)-3-(3-carbamoyl-1,2-dihydro-3H-pyrrolo[3,2-e]indol-7-yl)carbonyl]-1-(chloromethyl)-5-hydroxy-1,2-dihydro-3H-pyrrolo[3,2-e]indole], the “cytotoxic activity of seco precursor compared with cyclopropane agent” value [1] was “not distinguishable”.
In the case of `COC(=O)c1cc2c([nH]1)C(=O)C=C1N(C(=O)OC)CC3CC123` (stereo not shown) [compound 41, Methyl 2-(Methoxycarbonyl)-1,2,8,8a-tetrahydrocyclopropa[c]pyrrolo[3,2-e]indol-4-one-6-carboxylate], the “sequence preference” value [3] is reported as 5'-AA>5'-TA, the “concentration at which DNA is alkylated” value [3] is reported as 10^-3 M and the “more efficient DNA alkylation than (+)-N--BOC-DSA” value [3] is reported as “approximately 10 ×”. The “unnatural enantiomer less effective” value [3] was “approximately 10 ×”.
For `COc1cc2cc(C(=O)N3CCCC4CC45C3=CC(=O)c3ccccc35)[nH]c2c(OC)c1OC` (stereo not shown) [compound 98, N-[(5,6,7-Trimethoxyindol-2-yl)carbonyl]-1,2,3,4,11,11a-hexahydrocyclopropa-[c]naphtho[2,1-b]azepin-6-one], the “more potent cytotoxicity than N--BOC-CNA (78), natural enantiomer” value ([1]; natural enantiomer) was 5-10 × and the “difference in cytotoxic potency versus N--BOC-CNA, unnatural enantiomer” value ([1]; unnatural enantiomers) was 1-2 ×.
